How the values were obtained:
TYRO3 = target: T1, TYRO3 (Homo sapiens, UniProt Q06418); assay: LanthaScreen Eu kinase binding assay, TYRO3; conditions: Tracer 236
T1 construct: purchased Life Technologies
T1 sequence (Q06418 41-890): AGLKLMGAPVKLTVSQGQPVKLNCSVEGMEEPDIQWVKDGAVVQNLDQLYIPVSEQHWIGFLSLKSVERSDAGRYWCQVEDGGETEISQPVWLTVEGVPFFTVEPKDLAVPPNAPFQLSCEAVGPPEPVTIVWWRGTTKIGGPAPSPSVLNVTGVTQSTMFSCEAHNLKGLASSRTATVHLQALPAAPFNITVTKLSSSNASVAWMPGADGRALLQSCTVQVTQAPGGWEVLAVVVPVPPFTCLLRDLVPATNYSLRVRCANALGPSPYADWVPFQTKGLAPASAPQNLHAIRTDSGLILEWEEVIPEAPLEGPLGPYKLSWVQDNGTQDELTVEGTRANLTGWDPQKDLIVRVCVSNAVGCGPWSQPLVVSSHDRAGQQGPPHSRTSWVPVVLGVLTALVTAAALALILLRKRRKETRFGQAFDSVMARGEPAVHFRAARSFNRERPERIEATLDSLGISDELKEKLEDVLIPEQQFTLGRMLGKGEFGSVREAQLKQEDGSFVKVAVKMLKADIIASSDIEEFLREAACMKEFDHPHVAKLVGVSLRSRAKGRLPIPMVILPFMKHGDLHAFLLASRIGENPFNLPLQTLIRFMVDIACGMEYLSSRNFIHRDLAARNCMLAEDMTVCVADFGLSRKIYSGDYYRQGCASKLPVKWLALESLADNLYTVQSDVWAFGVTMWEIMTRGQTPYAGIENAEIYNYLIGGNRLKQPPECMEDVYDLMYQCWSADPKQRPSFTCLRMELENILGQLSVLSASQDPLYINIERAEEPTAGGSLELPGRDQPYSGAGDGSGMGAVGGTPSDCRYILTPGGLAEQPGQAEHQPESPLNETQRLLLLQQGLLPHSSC

Met = target: T2, Met (Homo sapiens, UniProt P08581); assay: LanthaScreen Eu kinase binding assay, Met; conditions: Tracer 236, read-out: cMet kinase binding activity (Kd)
T2 construct: purchased Life Technologies

[1] = tested on: Axl phosphorylation in transiently transfected HEK293T cells; assay: Cellular Axl phosphorylation assay; type: cell-based; conditions: Homo sapiens, HEK-293T; HEK293T cells transfected with Axl, 1 hour compound treatment, Phospho-Axl vs Total-Axl
Source text: Cell AXL Inhibition Assay Principle
The assay is based on the measurement of the relative amounts of Total-Axl and Phosphorylated-Axl in whole cell lysates of transiently transfected HEK293T cells. This assay is based on application of the Mesoscale western blot and subsequent electro-chemiluminescence detection. Overexpression of Axl-RTK (Receptor tyrosine kinase) by transfection leads to an increase in Axl-trans-autophosphorylation events. Upon compound treatment, the correlation of the measured values of Phosphorylated-Axl and Total Axl indicate the potential of the tested compound to inhibit Axl-phosphorylation at the given compound concentration.
Cell AXL Inhibition Assay Protocol
HEK293T cells (2.5×10^4/well) were plated in a 96 well plate and cells were transfected with pcDNA_DEST_40 Axl or pcDNA_DEST_40 by Superfact reagent (Qiagen. Co. Ltd.). After overnight, the transfection reagent of each well was removed from cells and replaced by fresh prewarmed medium. On the following day, cells were treated with the respective test compound which was diluted by the same method, as in the Axl binding assay using DMSO, for 1 hour
After incubation with the test compounds, cells in the well of the plate were lysed using Tris lysis buffer. The lysate was transferred to two plates (total-Axl and phosphor-Axl) Mesoscale high bind plates and incubated for two hours at room temperature. Afterwards the lysates were removed from the plates and the plates were blocked using Blocking buffer. Subsequently Total-Axl antibody (H-124, Santa Cruz) was transferred to one Mesoscale high bind plate, and Phospho-Axl antibody (AF2228, R&D) to the other plate. After 1 h incubation, Sulpho-Tag antibody (goat anti-rabbit, Mesoscale) was added and again incubated for 1 hour. For the measurement, 2×MSD read buffer was added to each well and the plates were analyzed with a Mesoscale Sector Imager 2400. IC50 (half the maximal inhibitory concentration) was determined relative to between the vehicle (DMSO) control group and minimum control group as transfection of the control vector (pcDNA_DEST_40).
The results after this assay are shown in table 3 for selected compounds.

Mer = target: T3, Mer (Homo sapiens, UniProt Q12866); assay: LanthaScreen Eu kinase binding assay, Mer; conditions: Tracer 236
T3 construct: purchased Life Technologies
T3 sequence (Q12866 21-999): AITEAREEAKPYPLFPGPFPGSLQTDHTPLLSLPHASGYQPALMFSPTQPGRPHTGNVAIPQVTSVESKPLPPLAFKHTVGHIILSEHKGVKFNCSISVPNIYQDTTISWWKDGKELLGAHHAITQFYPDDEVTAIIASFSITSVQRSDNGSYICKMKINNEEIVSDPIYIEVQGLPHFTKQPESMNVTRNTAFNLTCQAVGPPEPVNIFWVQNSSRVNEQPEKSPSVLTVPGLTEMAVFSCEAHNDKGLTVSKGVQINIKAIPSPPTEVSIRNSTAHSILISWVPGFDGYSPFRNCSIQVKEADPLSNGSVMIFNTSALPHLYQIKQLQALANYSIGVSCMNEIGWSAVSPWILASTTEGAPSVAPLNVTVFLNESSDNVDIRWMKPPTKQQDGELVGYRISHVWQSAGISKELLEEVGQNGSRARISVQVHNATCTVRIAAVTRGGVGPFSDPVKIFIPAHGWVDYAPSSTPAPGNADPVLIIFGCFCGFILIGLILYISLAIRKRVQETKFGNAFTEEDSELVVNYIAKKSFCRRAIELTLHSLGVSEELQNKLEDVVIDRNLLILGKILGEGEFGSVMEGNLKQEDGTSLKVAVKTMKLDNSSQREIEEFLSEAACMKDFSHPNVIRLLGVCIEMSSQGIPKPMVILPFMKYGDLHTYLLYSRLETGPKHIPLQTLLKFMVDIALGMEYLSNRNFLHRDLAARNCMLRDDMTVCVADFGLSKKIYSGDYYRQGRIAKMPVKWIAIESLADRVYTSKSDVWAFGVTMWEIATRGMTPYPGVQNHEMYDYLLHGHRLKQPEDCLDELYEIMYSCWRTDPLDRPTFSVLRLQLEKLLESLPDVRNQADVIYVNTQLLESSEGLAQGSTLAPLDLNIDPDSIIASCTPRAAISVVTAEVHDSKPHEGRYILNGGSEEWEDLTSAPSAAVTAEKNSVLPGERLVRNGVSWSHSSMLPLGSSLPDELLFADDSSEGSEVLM

Axl = target: T4, Axl (Homo sapiens, UniProt P30530); assay: LanthaScreen Eu kinase binding assay, Axl; conditions: Tracer 236
T4 construct: purchased Life Technologies
T4 sequence (P30530 26-894): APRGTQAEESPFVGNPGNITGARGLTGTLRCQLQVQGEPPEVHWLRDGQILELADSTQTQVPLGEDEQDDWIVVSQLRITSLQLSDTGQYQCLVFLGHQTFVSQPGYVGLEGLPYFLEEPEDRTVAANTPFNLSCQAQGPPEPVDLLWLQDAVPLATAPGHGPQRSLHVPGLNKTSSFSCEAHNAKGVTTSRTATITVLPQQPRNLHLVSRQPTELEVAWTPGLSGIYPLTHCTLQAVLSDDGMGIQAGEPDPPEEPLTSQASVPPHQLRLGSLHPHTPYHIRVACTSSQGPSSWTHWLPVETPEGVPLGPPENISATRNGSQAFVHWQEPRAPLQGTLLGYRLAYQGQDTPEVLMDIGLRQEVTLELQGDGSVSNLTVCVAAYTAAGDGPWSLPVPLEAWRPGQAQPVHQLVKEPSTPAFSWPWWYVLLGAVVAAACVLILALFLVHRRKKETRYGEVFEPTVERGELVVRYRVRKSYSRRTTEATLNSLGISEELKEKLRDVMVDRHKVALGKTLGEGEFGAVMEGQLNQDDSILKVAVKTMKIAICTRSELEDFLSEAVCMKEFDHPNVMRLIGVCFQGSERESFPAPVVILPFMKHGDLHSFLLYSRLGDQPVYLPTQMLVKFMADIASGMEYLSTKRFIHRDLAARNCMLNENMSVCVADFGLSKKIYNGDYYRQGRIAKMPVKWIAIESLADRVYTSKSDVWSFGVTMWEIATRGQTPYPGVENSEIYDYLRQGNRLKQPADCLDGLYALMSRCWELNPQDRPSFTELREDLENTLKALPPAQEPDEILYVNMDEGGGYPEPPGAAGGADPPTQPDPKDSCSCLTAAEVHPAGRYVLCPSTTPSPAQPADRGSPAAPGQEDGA

T2 sequence (P08581 25-1390): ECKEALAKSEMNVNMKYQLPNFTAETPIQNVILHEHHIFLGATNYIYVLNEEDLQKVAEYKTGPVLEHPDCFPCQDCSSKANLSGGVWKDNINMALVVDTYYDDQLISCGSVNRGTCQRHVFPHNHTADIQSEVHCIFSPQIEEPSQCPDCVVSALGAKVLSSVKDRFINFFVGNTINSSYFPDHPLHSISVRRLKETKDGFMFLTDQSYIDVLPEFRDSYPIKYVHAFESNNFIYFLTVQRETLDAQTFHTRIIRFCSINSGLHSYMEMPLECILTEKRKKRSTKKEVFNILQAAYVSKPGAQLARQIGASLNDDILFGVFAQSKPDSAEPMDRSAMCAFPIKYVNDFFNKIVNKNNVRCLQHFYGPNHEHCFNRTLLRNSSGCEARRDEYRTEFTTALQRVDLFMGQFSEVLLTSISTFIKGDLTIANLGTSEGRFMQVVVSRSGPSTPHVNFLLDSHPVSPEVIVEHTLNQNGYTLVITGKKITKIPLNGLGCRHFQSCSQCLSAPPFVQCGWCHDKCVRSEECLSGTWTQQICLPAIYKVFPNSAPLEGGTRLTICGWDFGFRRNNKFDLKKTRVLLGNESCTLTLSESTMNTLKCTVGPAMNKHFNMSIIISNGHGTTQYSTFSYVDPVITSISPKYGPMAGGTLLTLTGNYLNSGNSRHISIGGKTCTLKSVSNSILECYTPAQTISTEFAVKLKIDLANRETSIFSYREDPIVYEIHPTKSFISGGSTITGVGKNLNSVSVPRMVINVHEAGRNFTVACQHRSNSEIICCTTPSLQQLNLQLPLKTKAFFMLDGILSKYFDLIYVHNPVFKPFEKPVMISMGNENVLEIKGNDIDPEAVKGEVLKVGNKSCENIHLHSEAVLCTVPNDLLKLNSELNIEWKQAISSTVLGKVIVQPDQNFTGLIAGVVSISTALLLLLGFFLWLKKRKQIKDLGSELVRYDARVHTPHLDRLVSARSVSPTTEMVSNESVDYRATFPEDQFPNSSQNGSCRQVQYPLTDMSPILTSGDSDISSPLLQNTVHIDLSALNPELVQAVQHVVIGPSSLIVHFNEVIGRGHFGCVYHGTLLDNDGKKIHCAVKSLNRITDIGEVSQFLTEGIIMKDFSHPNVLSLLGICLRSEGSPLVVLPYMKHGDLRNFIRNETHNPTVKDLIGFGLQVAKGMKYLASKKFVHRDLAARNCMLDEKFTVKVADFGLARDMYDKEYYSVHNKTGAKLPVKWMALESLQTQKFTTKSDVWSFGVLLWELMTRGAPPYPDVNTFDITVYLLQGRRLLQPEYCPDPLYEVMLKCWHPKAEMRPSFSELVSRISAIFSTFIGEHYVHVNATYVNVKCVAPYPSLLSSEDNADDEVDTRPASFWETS

C=C(C)c1ccncc1-n1cc(OCC)c(C(=O)Nc2ccc(Oc3ccnc4cc(OC)c(OC)cc34)cn2)n1 [Compound 202]
< 100 nM: Kd (TYRO3) | Kd (Met) | IC50 [1] | Kd (Mer)

COc1cc2nccc(Oc3ccc(NC(=O)c4nn(-c5ccc(F)c(C(C)=O)c5)cc4OCC(F)(F)F)nc3)c2cc1OC [Compound 280]
< 100 nM: Kd (TYRO3) | Kd (Met) | Kd (Axl) | Kd (Mer)
